In ChEMBL document CHEMBL1201862, “PubChem BioAssay data set” (2004):
Active and inactive are the calls of the source.

Assays:
[1] = A Cell Based Secondary Assay To Explore Cytotoxicity of Compounds that Sensitize Mycobacterium Tuberculosis to Beta-Lactam Antibiotics.; assay type: functional
[2] = Luminescence Cell-Based Dose Confirmation HTS to Identify Activators of 5'UTR Stem-Loop Driven Alpha-Synuclein mRNA Translation in H4 Neuroglioblastoma Cells. [Related pubchem assays: 1829 (Project Summary), 1814 (Primary HTS)]; assay type: functional
[3] = Luminescence Cell-Based Dose Response HTS to Identify Activators of Luciferase Translation or Activity in H4 […] Cells. [Related pubchem assays: 1829 (Project Summary), 1814 (Primary HTS)]; assay type: functional
H4 = assay: Luminescence Cell-Based Dose Response HTS to Identify Activators of 5'UTR Stem-Loop Driven Prion Protein mRNA Translation in H4 Neuroglioblastoma Cells. [Related pubchem assays: 1829 (Project Summary), 1814 (Primary HTS)]; assay type: functional; details: Homo sapiens
[4] = inhibitors of intracellular T. cruzi replication, confirmation, NIH3T3 host cells, beta-gal luminescence (AID 2044); assay type: functional, cell-based;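 also: intracellular parasites grown in NIH/3T3 mouse fibroblasts as host cells; luminescent beta-galactosidase reporter signal from transgenic T. cruzi replicating inside host cells; inhibitors lower the luminescence signal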
[5] = cytotoxicity toward NIH3T3 fibroblasts, dose response, counter-screen, cell-based, ATP luminescence, mouse fibroblasts (AID 2010); assay type: functional;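 also: cells exposed to compound for about 90 hours before reading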
Vero = assay: cells; assay type: functional; details: Chlorocebus sabaeus
cells [6] = assay: cells
Coagulation factor XII = molecular target: T1, Coagulation factor XII (Homo sapiens, UniProt P00748); assay type: functional;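 also: activated factor XIIa alpha cleaving a fluorogenic AMC peptide substrate; inhibitor potency from loss of enzyme activity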
T1 sequence (P00748 whole entry): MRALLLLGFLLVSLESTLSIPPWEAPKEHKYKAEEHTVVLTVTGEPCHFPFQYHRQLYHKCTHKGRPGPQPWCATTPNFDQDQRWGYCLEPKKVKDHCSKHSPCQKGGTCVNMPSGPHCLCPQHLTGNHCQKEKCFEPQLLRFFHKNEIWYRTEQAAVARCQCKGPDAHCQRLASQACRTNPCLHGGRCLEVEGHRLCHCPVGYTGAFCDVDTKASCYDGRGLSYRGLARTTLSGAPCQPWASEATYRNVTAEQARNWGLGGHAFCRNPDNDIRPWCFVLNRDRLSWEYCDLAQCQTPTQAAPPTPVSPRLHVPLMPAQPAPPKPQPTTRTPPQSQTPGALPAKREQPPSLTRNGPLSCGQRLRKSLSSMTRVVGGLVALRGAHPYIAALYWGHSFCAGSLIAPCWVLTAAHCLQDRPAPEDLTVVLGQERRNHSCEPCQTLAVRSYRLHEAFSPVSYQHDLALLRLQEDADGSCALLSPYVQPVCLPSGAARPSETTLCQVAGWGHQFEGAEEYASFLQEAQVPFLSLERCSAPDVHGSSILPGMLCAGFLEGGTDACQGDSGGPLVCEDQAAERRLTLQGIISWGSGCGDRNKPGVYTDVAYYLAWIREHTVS

[7] = HEp-2 cell cytotoxicity, dose response, cytotoxicity control for RSV inhibitor project, HTS (AID 2410); assay type: functional; details: human respiratory syncytial virus
cells [8] = assay: cells; remark: listed apart in the source
[9] = molecular target: T2, Voltage-gated N-type calcium channel alpha-1B subunit/Amyloid beta A4 precursor protein-binding family A member 1 (Homo sapiens, UniProt Q00975+Q02410); assay type: protein assay
[10] = molecular target: T2, Voltage-gated N-type calcium channel alpha-1B subunit/Amyloid beta A4 precursor protein-binding family A member 1; assay type: protein assay; remark: listed apart in the source
[11] = molecular target: T2, Voltage-gated N-type calcium channel alpha-1B subunit/Amyloid beta A4 precursor protein-binding family A member 1; assay: disruptors of Mint-PDZ/N-type channel peptide interaction – biochemical, HTRF, SAR follow-up (AID 2489); assay type: functional
HEK293 [12] = assay: NOD1 signaling inhibitors, primary screen, cell-based, luminescence, uHTS (AID 1578); assay type: functional; details: Homo sapiens
HEK293 [13] = assay: cells; assay type: functional, cell-based; details: Homo sapiens
HEK293 [14] = assay: cells; assay type: functional, cell-based; details: Homo sapiens; remark: listed apart in the source
[15] = molecular target: Nucleotide-binding oligomerization domain-containing protein 2 (Homo sapiens, UniProt Q9HC29); assay: NOD2 signaling inhibitors, cell-based, luminescence, uHTS, HEK293 (AID 1566); assay type: functional
HEK293 [16] = assay: NOD2 signaling inhibitors in MDP-stimulated cells, cell-based, uHTS, luminescence (AID 2001); assay type: functional; details: Homo sapiens
HEK293 [17] = assay: cells; assay type: functional, cell-based; details: Homo sapiens; remark: listed apart in the source
[18] = molecular target: T3, Replicative DNA helicase DnaB (Mycobacterium tuberculosis, UniProt P9WMR3); assay: DnaB intein splicing inhibitors, dose response, biochemical, cell-free fluorescence (AID 449749); assay type: functional
T3 sequence (P9WMR3 whole entry): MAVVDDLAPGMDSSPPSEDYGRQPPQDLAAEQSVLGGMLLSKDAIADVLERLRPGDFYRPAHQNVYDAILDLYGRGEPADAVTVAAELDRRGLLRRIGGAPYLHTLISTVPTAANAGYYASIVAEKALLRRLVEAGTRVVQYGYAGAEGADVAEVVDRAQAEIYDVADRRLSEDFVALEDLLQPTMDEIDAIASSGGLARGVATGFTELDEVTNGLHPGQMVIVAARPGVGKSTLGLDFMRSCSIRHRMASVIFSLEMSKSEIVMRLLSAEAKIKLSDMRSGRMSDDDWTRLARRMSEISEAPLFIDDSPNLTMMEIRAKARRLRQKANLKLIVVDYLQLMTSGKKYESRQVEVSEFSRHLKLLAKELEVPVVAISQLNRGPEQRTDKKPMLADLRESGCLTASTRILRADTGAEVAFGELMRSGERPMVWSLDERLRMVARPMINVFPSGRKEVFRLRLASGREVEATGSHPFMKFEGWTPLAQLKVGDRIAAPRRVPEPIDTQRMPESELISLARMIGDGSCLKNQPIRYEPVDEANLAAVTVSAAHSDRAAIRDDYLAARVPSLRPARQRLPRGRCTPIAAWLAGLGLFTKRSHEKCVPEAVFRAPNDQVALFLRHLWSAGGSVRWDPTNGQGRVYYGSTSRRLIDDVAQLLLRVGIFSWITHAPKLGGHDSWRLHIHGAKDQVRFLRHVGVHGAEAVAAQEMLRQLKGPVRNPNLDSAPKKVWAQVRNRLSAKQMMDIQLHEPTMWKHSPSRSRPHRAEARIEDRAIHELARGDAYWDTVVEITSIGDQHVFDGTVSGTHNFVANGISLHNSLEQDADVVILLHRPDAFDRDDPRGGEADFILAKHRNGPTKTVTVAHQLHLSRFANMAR

Protein RecA = molecular target: T4, Protein RecA (Mycobacterium tuberculosis, UniProt P9WHJ3); assay: Fluorescence Cell-Free Homogeneous Dose Retest to Identify Inhibitors of RecA-Intein Splicing Activity. [Related pubchem assays (depositor defined):AID2097, AID2223, AID489010, AID492950]; assay type: functional
T4 sequence (P9WHJ3 whole entry): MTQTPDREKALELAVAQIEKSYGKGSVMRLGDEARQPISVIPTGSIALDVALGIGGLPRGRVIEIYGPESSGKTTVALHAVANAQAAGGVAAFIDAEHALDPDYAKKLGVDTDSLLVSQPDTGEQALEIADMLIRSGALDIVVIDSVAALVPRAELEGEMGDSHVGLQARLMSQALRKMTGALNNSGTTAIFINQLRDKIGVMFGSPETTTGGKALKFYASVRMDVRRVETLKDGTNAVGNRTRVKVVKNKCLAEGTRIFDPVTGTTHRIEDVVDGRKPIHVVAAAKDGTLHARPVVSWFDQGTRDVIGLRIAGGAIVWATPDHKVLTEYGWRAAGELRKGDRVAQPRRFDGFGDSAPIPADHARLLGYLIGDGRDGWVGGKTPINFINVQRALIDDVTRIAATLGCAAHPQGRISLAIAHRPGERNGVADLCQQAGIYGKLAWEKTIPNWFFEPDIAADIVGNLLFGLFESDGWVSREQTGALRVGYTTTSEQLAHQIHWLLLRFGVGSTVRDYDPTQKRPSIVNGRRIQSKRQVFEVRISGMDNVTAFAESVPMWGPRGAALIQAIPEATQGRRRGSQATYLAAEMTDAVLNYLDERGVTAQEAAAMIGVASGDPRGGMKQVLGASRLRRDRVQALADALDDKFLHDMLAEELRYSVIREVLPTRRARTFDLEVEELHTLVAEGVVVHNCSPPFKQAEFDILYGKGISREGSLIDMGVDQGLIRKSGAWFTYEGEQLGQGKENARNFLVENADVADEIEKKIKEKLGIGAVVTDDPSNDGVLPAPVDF

[19] = molecular target: T5, DNA repair and recombination protein RAD54-like (Homo sapiens, UniProt Q92698); assay: inhibitors of human RAD54 branch migration, confirmation, biochemical, fluorescence, cherry-picked samples, dose series (AID 651657); assay type: functional
T5 sequence (Q92698 whole entry): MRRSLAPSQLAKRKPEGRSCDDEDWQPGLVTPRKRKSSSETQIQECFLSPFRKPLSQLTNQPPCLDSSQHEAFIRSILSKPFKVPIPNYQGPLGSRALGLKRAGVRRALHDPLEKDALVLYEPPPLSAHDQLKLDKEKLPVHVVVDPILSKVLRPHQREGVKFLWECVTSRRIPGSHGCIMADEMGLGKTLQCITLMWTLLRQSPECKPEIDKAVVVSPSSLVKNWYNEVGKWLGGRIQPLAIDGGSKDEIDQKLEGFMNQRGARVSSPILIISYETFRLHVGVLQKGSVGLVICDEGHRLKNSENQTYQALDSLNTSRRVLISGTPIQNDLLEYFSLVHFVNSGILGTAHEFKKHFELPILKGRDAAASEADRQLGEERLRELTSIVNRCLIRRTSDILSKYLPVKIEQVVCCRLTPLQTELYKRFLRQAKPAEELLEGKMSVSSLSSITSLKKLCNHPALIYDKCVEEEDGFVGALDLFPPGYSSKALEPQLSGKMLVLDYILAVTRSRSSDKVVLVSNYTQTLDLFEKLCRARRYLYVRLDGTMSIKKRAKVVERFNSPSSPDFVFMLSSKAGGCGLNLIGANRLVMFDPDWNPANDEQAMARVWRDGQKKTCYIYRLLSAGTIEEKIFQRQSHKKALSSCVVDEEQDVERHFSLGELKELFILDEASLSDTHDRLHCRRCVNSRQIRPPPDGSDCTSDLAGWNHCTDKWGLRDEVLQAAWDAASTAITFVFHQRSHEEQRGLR

[20] = molecular target: T6, DNA repair protein RAD52 homolog (Homo sapiens, UniProt P43351); assay type: functional, biochemical
T6 sequence (P43351 whole entry): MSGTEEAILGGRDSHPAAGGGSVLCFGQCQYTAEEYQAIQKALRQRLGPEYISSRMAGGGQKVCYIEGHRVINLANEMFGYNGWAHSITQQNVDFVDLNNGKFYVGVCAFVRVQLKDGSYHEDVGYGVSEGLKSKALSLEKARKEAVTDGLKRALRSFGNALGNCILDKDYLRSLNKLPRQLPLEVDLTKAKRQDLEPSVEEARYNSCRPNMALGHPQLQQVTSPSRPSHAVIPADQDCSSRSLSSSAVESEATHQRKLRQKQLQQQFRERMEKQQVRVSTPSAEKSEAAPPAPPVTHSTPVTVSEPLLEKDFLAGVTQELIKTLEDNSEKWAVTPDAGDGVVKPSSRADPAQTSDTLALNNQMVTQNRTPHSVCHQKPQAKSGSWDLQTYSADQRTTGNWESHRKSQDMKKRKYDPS

[21] = NIH-3T3 fibroblast cytotoxicity, dose response, cytotoxicity control, cell-based, fluorescence, Alamar Blue, secondary assay (AID 2327); assay type: functional;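 also: NIH-3T3 mouse fibroblasts cultured with fluconazole at 8 µg/mL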
[22] = C. albicans growth with fluconazole, confirmation, fluorescence, retest (AID 2467); assay type: functional, cell-based
Cytochrome P450 3A4 = Cytochrome P450 3A4 (Homo sapiens, UniProt P08684);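 also: CYP3A4 tested as one member of a cytochrome P450 panel screen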
Cytochrome P450 2C9 = Cytochrome P450 2C9 (Homo sapiens, UniProt P11712)
Cytochrome P450 2C9, sequence (P11712 whole entry): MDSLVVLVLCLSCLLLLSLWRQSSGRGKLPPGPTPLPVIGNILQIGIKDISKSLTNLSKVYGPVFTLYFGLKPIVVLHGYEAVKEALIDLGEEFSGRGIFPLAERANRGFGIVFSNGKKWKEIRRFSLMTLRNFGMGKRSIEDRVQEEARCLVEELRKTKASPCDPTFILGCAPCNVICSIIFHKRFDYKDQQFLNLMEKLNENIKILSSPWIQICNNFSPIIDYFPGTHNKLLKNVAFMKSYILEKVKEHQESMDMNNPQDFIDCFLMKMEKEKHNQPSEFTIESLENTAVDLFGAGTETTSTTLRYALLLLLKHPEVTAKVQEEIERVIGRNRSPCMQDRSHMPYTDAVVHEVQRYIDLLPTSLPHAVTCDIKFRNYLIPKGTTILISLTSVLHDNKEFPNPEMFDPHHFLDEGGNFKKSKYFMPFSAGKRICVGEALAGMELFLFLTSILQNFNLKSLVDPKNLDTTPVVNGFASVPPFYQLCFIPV

T2 sequence (Q00975 whole entry): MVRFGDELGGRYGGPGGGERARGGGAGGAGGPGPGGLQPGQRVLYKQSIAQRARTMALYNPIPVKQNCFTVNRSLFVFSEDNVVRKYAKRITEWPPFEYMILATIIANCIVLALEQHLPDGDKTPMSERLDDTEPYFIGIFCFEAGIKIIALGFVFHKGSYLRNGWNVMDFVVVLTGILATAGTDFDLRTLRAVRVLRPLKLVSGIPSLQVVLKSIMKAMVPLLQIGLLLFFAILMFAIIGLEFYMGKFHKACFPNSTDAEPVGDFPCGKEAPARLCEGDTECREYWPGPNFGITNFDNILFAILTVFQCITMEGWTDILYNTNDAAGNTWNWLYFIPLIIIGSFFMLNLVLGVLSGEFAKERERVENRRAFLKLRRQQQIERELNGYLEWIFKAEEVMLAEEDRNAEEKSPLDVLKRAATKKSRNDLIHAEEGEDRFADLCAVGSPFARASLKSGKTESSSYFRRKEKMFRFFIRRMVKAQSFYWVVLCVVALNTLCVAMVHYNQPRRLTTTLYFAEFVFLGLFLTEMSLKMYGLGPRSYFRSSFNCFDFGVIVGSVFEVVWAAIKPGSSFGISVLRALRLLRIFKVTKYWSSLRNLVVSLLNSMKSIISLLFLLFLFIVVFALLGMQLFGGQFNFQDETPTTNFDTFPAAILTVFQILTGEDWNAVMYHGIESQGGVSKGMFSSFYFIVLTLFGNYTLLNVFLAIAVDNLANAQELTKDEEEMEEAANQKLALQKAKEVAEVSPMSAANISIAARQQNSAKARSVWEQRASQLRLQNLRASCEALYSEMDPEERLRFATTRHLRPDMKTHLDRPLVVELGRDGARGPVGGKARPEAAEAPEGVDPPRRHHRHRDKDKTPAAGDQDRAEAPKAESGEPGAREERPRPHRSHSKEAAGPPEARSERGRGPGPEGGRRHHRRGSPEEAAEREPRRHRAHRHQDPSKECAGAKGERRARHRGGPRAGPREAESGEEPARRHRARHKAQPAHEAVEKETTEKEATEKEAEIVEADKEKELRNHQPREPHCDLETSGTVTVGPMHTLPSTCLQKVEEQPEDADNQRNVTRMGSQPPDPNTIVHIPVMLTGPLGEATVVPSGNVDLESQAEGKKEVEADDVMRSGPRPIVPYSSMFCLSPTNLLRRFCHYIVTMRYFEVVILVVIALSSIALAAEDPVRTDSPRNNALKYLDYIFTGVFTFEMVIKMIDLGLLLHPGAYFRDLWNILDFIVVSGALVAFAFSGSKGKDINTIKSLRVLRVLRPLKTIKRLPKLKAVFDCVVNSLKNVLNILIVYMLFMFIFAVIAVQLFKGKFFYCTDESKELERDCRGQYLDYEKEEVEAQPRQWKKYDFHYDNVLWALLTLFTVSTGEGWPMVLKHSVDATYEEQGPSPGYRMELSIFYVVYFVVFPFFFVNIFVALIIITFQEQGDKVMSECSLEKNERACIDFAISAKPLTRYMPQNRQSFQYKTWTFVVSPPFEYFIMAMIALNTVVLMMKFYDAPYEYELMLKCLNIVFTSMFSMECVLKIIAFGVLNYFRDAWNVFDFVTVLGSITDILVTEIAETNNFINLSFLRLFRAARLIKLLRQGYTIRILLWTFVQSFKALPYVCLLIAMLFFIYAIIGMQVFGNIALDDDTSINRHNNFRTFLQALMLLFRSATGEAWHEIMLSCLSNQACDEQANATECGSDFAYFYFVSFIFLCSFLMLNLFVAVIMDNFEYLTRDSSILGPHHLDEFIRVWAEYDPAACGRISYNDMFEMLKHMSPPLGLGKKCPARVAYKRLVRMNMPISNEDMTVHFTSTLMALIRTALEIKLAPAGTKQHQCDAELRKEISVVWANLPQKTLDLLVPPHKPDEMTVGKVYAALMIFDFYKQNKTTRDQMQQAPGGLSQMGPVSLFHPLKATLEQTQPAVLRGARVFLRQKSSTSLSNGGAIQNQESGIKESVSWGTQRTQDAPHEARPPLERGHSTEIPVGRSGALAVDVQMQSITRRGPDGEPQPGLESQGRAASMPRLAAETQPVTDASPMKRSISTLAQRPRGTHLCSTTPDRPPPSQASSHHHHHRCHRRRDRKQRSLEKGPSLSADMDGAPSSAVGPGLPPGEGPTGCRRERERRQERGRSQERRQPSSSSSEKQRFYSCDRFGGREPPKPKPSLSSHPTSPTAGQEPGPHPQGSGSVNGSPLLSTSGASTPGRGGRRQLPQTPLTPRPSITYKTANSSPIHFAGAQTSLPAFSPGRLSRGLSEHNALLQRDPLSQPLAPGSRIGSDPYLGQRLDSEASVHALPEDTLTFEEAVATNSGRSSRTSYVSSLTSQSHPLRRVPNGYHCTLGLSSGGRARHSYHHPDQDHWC
T2 sequence (Q02410 whole entry): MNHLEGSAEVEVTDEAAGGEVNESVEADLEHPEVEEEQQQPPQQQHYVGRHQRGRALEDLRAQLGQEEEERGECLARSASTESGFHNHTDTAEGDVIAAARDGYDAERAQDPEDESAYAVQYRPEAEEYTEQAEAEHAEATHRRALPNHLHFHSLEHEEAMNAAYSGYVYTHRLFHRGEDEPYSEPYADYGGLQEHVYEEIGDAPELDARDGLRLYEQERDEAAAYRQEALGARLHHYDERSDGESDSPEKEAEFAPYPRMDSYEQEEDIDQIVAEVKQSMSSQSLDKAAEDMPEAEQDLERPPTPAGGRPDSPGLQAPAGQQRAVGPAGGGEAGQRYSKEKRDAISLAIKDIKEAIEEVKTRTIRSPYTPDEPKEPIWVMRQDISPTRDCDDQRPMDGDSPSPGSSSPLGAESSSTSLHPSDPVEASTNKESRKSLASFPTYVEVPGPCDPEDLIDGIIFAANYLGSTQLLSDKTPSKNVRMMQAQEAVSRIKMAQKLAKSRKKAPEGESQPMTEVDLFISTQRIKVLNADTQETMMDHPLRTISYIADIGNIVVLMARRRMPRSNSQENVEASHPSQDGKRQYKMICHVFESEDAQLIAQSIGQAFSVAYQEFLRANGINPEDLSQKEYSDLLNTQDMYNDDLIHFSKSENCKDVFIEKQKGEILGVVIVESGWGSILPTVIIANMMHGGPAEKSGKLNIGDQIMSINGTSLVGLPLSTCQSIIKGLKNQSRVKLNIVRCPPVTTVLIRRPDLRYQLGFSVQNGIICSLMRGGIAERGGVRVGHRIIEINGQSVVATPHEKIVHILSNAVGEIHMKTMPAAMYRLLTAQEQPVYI
Nucleotide-binding oligomerization domain-containing protein 2, sequence (Q9HC29 whole entry, the tested form may be a part): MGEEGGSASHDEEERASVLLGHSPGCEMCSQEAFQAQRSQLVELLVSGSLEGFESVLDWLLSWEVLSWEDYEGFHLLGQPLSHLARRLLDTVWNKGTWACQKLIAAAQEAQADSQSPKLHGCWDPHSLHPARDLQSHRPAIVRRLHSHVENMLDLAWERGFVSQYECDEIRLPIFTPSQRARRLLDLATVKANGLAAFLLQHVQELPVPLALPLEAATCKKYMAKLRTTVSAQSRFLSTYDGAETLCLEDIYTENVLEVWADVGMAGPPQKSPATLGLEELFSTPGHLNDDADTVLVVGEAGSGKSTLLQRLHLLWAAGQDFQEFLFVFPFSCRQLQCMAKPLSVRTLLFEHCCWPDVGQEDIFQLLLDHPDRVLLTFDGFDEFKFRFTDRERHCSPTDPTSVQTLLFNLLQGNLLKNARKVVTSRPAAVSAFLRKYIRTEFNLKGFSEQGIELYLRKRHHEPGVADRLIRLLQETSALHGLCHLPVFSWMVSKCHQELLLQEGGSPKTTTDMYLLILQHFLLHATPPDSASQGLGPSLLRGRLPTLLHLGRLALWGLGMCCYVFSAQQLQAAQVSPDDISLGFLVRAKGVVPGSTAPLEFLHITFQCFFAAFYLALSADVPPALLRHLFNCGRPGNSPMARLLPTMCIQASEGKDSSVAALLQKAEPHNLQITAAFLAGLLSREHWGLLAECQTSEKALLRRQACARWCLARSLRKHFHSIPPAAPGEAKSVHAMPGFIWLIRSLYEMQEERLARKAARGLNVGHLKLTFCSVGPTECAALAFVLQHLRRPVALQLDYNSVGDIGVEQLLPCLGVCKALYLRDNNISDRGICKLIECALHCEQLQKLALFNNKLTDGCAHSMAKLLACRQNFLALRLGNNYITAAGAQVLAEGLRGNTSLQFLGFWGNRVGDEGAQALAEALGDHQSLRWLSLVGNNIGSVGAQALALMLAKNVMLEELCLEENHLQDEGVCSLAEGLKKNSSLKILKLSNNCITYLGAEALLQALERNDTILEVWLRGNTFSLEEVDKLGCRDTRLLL

## COc1cccc(NC(=O)c2cc(-c3cccnc3)nc3c(Cl)cccc23)c1
[1]
  CC50: 33.5 µM (active)

## O=C(NN(c1ccccc1)c1ccccc1)c1ccc([N+](=O)[O-])o1
[2]
  EC50: 44.6 µM (active)
[3]
  EC50: > 120 µM (not active)
H4
  EC50: > 120 µM (not active)
[4]
  EC50: < 0.1 µM (active)
[5]
  EC50: > 60 µM (not active)
Vero
  CC50: 17.4 µM (active)
Cells [6]
  EC50: 0.14 µM (active)

## CCc1c(C)nc(N)nc1N1N=C1SCC#N
Coagulation factor XII
  IC50: > 50 µM (inactive)

## CC(CCc1ccc(O)cc1)NC(c1ccccc1)c1ccc(Cl)cc1 (stereo not given)
[7]
  CC50: 10.3 µM (active)
Cells [8]
  IC50: 11.8 µM (active)

## NC(=O)[C@@H]1CC2(CC(c3cccc(NC(=O)COc4ccc(Cl)cc4)c3)=NO2)CN1C(=O)COc1ccc(Cl)cc1 (stereo not given in full)
[1]
  CC50: > 40 µM (active)

## O=C(CSc1ccc(Cl)cc1)Nc1cccc(-c2nc3ccccc3[nH]2)c1
[9]
  IC50: 2.75 µM (active)
[10]
  IC50: 36.7 µM (active)
[11]
  IC50: 26.9 µM (active)

## Oc1nc(COc2ccc(Br)cc2Cl)nc2ccccc12
[7]
  CC50: 23.6 µM (active)
Cells [8]
  IC50: 30.7 µM (active)

## Cc1nc(N2CCC(C)CC2)c2c(C)c(C(=O)Nc3cc(F)ccc3C)sc2n1
HEK293 [12]
  EC50: > 20 µM (inactive)
HEK293 [13]
  IC50: > 20 µM (inactive)
HEK293 [14]
  IC50: > 20 µM (inactive)
[15]
  EC50: > 20 µM (inactive)
HEK293 [16]
  IC50: > 20 µM (inactive)
HEK293 [17]
  IC50: > 20 µM (inactive)

## C/C(=N\NC(=O)c1ccc(NS(=O)(=O)c2cccs2)cc1)c1ccc(C(C)(C)C)cc1
[7]
  CC50: 20.6 µM (active)
Cells [8]
  IC50: 8.48 µM (active)

## Cc1cc(Cl)ccc1OC(C)C(=O)NCCCCc1ccccc1 (stereo not given)
[1]
  CC50: > 40 µM (active)

## O=C1COc2ccc(C(=O)CCl)cc2N1
[1]
  CC50: 31.8 µM (active)
[18]
  AC50: 40.4 µM (active)
Protein RecA
  EC50: 26.3 µM (active)

## CN(C)CCCN(C(=O)c1ccco1)c1nc(-c2ccc(Cl)cc2)cs1
[4]
  EC50: < 0.1 µM (active)
[5]
  EC50: > 60 µM (not active)
Vero
  CC50: > 25 µM (active)
[19]
  AC50: 64.1 µM (active)
[20]
  AC50: 17.3 µM (active)
Cells [6]
  EC50: 0.254 µM (active)

## Cc1cc(C(C#N)c2cccc(Cl)c2)n2ncnc2n1 (stereo not given)
[21]
  EC50: > 160 µM (inactive)
[22]
  EC50: 0.598 µM (active)
Coagulation factor XII
  IC50: > 50 µM (inactive)
Cytochrome P450 3A4
  AC50: 14.1 µM (inconclusive)
Cytochrome P450 2C9
  AC50: inconclusive
